How the values were obtained:
[1] = system: genotype 1b stable HCV replicon (Con1) in Huh-7-derived cells; assay: Stable subgenomic HCV replicon, genotype 1b, Renilla luciferase; assay type: cell-based; conditions: Hepatitis C virus, stable replicon genotype 1b, 72 h, read-out: EC50 1B RLUC
Method in brief: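 Replicons carry hRLuc-neo, EMCV IRES and NS3-NS5B with adaptive mutations: 1a H77 P1496L/S2204I, 1b Con1 E1202G/T1280I/K1846T, 4a ED43 Q1691R/S2204I. EC50 came from non-linear regression versus DMSO and a triple-inhibitor full-inhibition control.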

[2] = system: genotype 3a transient HCV replicon (S52) in Huh-7-derived cells; assay: Transient-transfected HCV replicon, genotype 3a wild type; assay type: cell-based; conditions: Hepatitis C virus; transient-transfected replicon genotype 3a wild type, 72 h; read-out: EC50 3A WT
NS3 genotype 3a protease = target: T1, NS3 genotype 3a protease (UniProt Q81258); assay: Ki determination, NS3 protease genotype 3a (fluorogenic depsipeptide substrate); assay type: biochemical, hepatitis C virus; conditions: NS3 protease domain genotype 3a, NS4A peptide
T1 construct: Purified NS3 protease domain (amino acids 1-181) of the genotype 1b and 3a virus were generated as above; fused on or other part: N-terminal hexahistidine tag with an rTEV protease cleavage site (vector p28-N6H-Tev-NS3(181)3)
T1 sequence (Q81258 1033-1663): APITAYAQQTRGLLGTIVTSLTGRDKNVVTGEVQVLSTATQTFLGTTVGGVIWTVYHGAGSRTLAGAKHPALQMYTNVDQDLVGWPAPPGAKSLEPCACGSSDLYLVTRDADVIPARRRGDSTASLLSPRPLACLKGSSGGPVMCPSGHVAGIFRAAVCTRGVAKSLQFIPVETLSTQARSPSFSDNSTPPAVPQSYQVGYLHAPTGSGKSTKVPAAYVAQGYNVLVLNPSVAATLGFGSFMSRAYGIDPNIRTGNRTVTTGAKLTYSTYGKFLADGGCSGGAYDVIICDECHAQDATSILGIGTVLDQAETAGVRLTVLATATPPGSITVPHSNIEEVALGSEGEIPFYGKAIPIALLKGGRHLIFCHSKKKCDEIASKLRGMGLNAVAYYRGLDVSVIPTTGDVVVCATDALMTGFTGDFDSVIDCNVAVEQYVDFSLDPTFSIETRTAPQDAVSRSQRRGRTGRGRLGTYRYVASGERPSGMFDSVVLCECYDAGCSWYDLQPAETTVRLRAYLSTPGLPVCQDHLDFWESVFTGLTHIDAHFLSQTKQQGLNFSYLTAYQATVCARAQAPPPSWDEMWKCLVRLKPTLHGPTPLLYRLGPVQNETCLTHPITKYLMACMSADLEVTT
Text: (§1) Ki Determination for Genotypes 1b and 3a NS3 Protease.
(§2) Purified NS3 protease domain (amino acids 1-181) of the genotype 1b and 3a virus were generated as above. The internally quenched fluorogenic depsipeptide substrate Ac-DED(Edans)-EEAbuψ[COO]ASK(Dabcyl)-NH2 and a synthetic peptide containing the hydrophobic core residues of the NS4A protein cofactor ([…]; NS4A peptide) were obtained from Anaspec, Inc. (San Jose, Calif.). Other chemicals and biochemicals were of reagent grade or better and were purchased from standard suppliers.
(§3) Reactions were run at room temperature in buffer consisting of 50 mM HEPES, 40% glycerol, 0.05% Triton X-100, 10 mM DTT, and 10% DMSO. The final assay solutions contained 50 pM NS3 genotype 1b protease or 200 pM genotype 3a protease, 20 μM NS4A peptide, and 4 μM substrate (genotype 1b) or 2 μM substrate (genotype 3a). Inhibitor concentrations varied from 100 nM to 5 pM in 3-fold dilutions, and no-inhibitor controls were included.
(§4) Compound dilutions were made in DMSO at 20× final concentration. Reaction mixtures were prepared in 96-well assay plates. A solution of enzyme and NS4A peptide in assay buffer (25 μL volume with both reagents at 4× final concentration) was mixed with 45 μL assay buffer and 5 μL of either inhibitor or DMSO, and pre-incubated at room temperature for 1 hour. The reaction was started by addition of 25 μL substrate solution at 4× final concentration. Plates were mixed vigorously for 5-10 seconds and reactions were allowed to proceed for 90 minutes. Fluorescence was measured every 30 s between 90 and 120 minutes reaction time using a Tecan InfiniTe M1000 or PerkinElmer Envision multimode plate reader with an excitation wavelength of 340 nm and an emission wavelength of 490 nm.
(§5) Rates were calculated from the progress curves at steady state, in the time frame of 90-120 minutes after addition of substrate. To determine the Ki, rates were plotted as a function of inhibitor concentration, and the data were fit with equation 1 (Morrison, J. F., Biochimica et Biophysica Acta 1969, 185, 269-286) to calculate Ki^app using GraphPad Prism 5. Active fraction of enzyme was determined by active site titration with known potent inhibitors. Ki was calculated from Ki^app/(1+[[S]/Km]).

NS3 genotype 1b protease = target: T2, NS3 genotype 1b protease (Hepatitis C virus genotype 1b, UniProt Q9WMX2, E1202G); assay: Ki determination, NS3 protease genotype 1b (fluorogenic depsipeptide substrate); assay type: biochemical; conditions: NS3 protease domain genotype 1b, NS4A peptide
T2 construct: Purified NS3 protease domain (amino acids 1-181) of the genotype 1b and 3a virus were generated as above; K3 hexahistidine tag (N); rTEV protease cleavage site (N); made in house; host or cells: E. coli BL21AI
T2 sequence (Q9WMX2 1027-1207 E1202G, other chains not shown): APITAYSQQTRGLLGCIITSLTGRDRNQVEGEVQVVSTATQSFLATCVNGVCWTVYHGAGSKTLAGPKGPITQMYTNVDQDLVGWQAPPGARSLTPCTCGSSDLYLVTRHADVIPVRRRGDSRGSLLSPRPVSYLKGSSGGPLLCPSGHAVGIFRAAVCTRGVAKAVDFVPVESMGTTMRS
Text: as §1, §2, §3, §4, §5

| SMILES | EC50 [1] | EC50 [2] | Ki (NS3 genotype 3a protease) | Ki (NS3 genotype 1b protease) |
| --- | --- | --- | --- | --- |
| COc1ccc2nc3c(nc2c1)O[C@@H]1C[C@@H](C(=O)N[C@]2(C(=O)NS(=O)(=O)C4(C)CC4)C[C@H]2C(F)F)N(C1)C(=O)[C@H](C(C)(C)C)NC(=O)O[C@@H]1[C@H]2CC[C@H](C2)[C@H]1CCCCC3 [Example 5, (1R,4S,4aR,8S,11S,13R,25aR)-8-tert-butyl-N-[(1R,2R)-2-(difluoromethyl)-1-{[(1-methylcyclopropyl)sulfonyl]carbamoyl}cyclopropyl]-17-methoxy-6,9-dioxo-2,3,4,4a,6,7,8,9,12,13,21,22,23,24,25,25a-hexadecahydro-1H,11H-1, 4:10,13-dimethanoquinoxalino[2,3-k][1,10,3,6]benzodioxadiazacyclononadecine-11-carboxamide] | 3.5 nM | 64 nM | 0.27 nM | 0.02 nM |
| COc1ccc2nc3c(nc2c1)O[C@@H]1C[C@@H](C(=O)N[C@]2(C(=O)NS(=O)(=O)C4CC4)C[C@H]2C(F)F)N(C1)C(=O)[C@H](C(C)(C)C)NC(=O)O[C@H]1[C@H](CCCCC3)C[C@H]2C[C@H]21 [Example 7, (1aR,1bS,5S,8S,10R,22aR,23aR)-5-tert-butyl-N-[(1R,2R)-1-[(cyclopropylsulfonyl)carbamoyl]-2-(difluoromethyl)cyclopropyl]-14-methoxy-3,6-dioxo-1a,1b,3,4,5,6,9,10,18,19,20,21,22,22a,23,23a-hexadecahydro-1H,8H-7,10-methanocyclopropa[3′,40]cyclopenta[1′,2′:18,19][1,10,3,6]dioxadiazacyclononadecino[11,12-b]quinoxaline-8-carboxamide] | 82 nM | 928 nM | 9.5 nM | 0.05 nM |
| COc1ccc2nc3c(nc2c1)O[C@@H]1C[C@@H](C(=O)N[C@]2(C(=O)NS(=O)(=O)C4(C)CC4)C[C@H]2C(F)F)N(C1)C(=O)[C@H](C(C)(C)C)NC(=O)O[C@H]1[C@H](CCCCC3)C[C@H]2C[C@H]21 [Example 8, (1aR,1bS,5S,8S,10R,22aR,23aR)-5-tert-butyl-N-[(1R,2R)-2-(difluoromethyl)-1-{[(1-methylcyclopropyl)sulfonyl]carbamoyl}cyclopropyl]-14-methoxy-3,6-dioxo-1a,1b,3,4,5,6,9,10,18,19,20,21,22,22a, 23,23a-hexadecahydro-1H,8H-7,10-methanocyclopropa[3′,4′]cyclopenta [1′,2′:18,19][1,10,3,6]dioxadiazacyclononadecino[11,12-b]quinoxaline-8-carboxamide] | 55 nM | 817 nM | 8.5 nM | 0.04 nM |
| COc1ccc2nc3c(nc2c1)O[C@@H]1C[C@@H](C(=O)N[C@]2(C(=O)NS(=O)(=O)C4(C)CC4)C[C@H]2C(F)F)N(C1)C(=O)[C@H](C(C)(C)C)NC(=O)O[C@@H]1C[C@@H]2C[C@@H]2[C@H]1CCCCC3(F)F [Example 10, (1aS,2aR,6S,9S,11R,23aR,23bS)-6-tert-butyl-N-[(1R,2R)-2-(difluoromethyl)-1-{[(1-methylcyclopropyl)sulfonyl]carbamoyl}cyclopropyl]-19,19-difluoro-15-methoxy-4,7-dioxo-1a,2,2a,4,5,6,7,10,11,19,20,21,22,23,23a,23b-hexadecahydro-1H,9H-8,11-methanocyclopropa [4′,5′]cyclopenta[1′,2′:18,19][1,10,3,6]dioxadiazacyclononadecino[11,12-b]quinoxaline-9-carboxamide] | 1.4 nM | 2.3 nM | 0.02 nM | 0.02 nM |
| CC(C)(C)[C@@H]1NC(=O)O[C@@H]2C[C@@H]3C[C@@H]3[C@H]2CCCCCc2nc3ccc(F)cc3nc2O[C@@H]2C[C@@H](C(=O)N[C@]3(C(=O)NS(=O)(=O)C4(C)CC4)C[C@H]3C(F)F)N(C2)C1=O [Example 11, (1aS,2aR,6S,9S,11R,23aR,23bS)-6-tert-butyl-N-[(1R,2R)-2-(difluoromethyl)-1-{[(1-methylcyclopropyl)sulfonyl]carbamoyl}cyclopropyl]-15-fluoro-4,7-dioxo-1a,2,2a,4,5,6,7,10,11,19,20,21,22,23,23a,23b-hexadecahydro-1H,9H-8,11-methanocyclopropa[4′,5′]cyclopenta[1′,2′:18,19][1,10,3,6]dioxadiazacyclononadecino[11,12-b]quinoxaline-9-carboxamide] | 1.3 nM | 9.7 nM | 0.09 nM | 0.02 nM |
| CC(C)(C)[C@@H]1NC(=O)O[C@@H]2C[C@@H]3C[C@@H]3[C@H]2CCCCCc2nc3ccc(F)cc3nc2O[C@@H]2C[C@@H](C(=O)N[C@]3(C(=O)NS(=O)(=O)C4CC4)C[C@H]3C(F)F)N(C2)C1=O [Example 12, (1aS,2aR,6S,9S,11R,23aR,23bS)-6-tert-butyl-N-[(1R,2R)-1-[(cyclopropylsulfonyl)carbamoyl]-2-(difluoromethyl)cyclopropyl]-15-fluoro-4,7-dioxo-1a,2,2a,4,5,6,7,10,11,19,20,21,22,23,23a,23b-hexadecahydro-1H,9H-8,11-methanocyclopropa[4′,5′]cyclopenta[1′,2′:18,19][1,10,3,6]dioxadiazacyclononadecino[11,12-b]quinoxaline-9-carboxamide] | 1.3 nM | 22 nM | 0.09 nM | 0.02 nM |
| CC(C)(C)[C@@H]1NC(=O)O[C@@H]2C[C@@H]3C[C@@H]3[C@H]2CC/C=C/C(F)(F)c2nc3ccc(C#N)cc3nc2O[C@@H]2C[C@@H](C(=O)N[C@]3(C(=O)NS(=O)(=O)C4(C)CC4)C[C@H]3C(F)F)N(C2)C1=O [Example 13, (1aS,2aR,6S,9S,11R,20E,23aR,23bS)-6-tert-butyl-15-cyano-N-[(1R,2R)-2-(difluoromethyl)-1-{[(1-methylcyclopropyl)sulfonyl]carbamoyl}cyclopropyl]-19,19-difluoro-4,7-dioxo-1a,2,2a,4,5,6,7,10,11,19,22,23,23a,23b-tetradecahydro-1H,9H-8,11-methanocyclopropa[4′,5′]cyclopenta[1′,2′18,19][1,10,3,6]dioxadiazacyclononadecino[11,12-b]quinoxaline-9-carboxamide] | 3 nM | 2.8 nM | 0.03 nM | 0.02 nM |
| CC(C)(C)[C@@H]1NC(=O)O[C@@H]2C[C@@H]3C[C@@H]3[C@H]2CCCCC(F)(F)c2nc3ccc(C#N)cc3nc2O[C@@H]2C[C@@H](C(=O)N[C@]3(C(=O)NS(=O)(=O)C4(C)CC4)C[C@H]3C(F)F)N(C2)C1=O [Example 14, (1aS,2aR,6S,9S,11R,23aR,23bS)-6-tert-butyl-15-cyano-N-[(1R,2R)-2-(difluoromethyl)-1-{[(1-methylcyclopropyl)sulfonyl]carbamoyl}cyclopropyl]-19,19-difluoro-4,7-dioxo-1a,2,2a,4,5,6,7,10,11,19,20,21,22,23,23a,23b-hexadecahydro-1H,9H-8,11-methanocyclopropa[4′,5′]cyclopenta [1′,2′:18,19][1,10,3,6]dioxadiazacyclononadecino[11,12-b]quinoxaline-9-carboxamide] | 1.1 nM | 1.4 nM | 0.01 nM | 0.01 nM |

Reference: patent US9617310B2 (priority 2013, dated 2017)
